Results reported in ChEMBL document CHEMBL4130390, “Crystal structure of Porphyromonas gingivalis dipeptidyl peptidase 4 and structure-activity relationships based on inhibitor profiling” (Eur J Med Chem, 2017).
pIC50, pKi: −log10 of the molar value. Active and inactive are the calls of the source. No cut-off for these calls is given here.

Columns and labels:
Dipeptidyl peptidase 9 = Dipeptidyl peptidase 9 (Bos taurus, UniProt E1BI31); assay: Inhibition of bovine DPP9
[1] = target: Dipeptidyl peptidase IV (Porphyromonas gingivalis) (UniProt O31048); assay: Inhibition of Porphyromonas gingivalis N-terminal His-tagged DPP4 expressed in Escherichia coli at 10 uM using Gly-Pro-p-nitroanilide as substrate relative to control
Sequence of Dipeptidyl peptidase IV (Porphyromonas gingivalis) (O31048 20-723 limits assumed): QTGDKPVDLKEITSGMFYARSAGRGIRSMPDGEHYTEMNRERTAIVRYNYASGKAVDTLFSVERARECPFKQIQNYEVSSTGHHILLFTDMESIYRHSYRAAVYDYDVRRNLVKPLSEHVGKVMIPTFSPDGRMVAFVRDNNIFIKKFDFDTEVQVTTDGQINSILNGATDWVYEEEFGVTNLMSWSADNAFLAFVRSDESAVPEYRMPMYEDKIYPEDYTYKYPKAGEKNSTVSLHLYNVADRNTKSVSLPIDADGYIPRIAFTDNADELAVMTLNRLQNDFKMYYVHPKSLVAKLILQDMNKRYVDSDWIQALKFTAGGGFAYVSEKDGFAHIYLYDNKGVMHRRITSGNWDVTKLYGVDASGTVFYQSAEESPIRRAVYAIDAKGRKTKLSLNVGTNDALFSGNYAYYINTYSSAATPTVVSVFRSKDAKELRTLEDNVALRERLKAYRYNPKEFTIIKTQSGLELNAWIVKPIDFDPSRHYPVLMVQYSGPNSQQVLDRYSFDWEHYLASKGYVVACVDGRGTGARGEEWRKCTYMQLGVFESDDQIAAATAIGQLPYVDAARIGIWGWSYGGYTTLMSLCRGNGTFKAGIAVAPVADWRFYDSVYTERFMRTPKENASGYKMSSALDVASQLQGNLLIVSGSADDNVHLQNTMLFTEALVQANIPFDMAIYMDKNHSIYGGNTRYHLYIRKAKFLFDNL

Dipeptidyl peptidase IV [2] = target: T1, Dipeptidyl peptidase IV (Porphyromonas gingivalis, UniProt O31048); assay: Inhibition of Porphyromonas gingivalis N-terminal His-tagged DPP4 expressed in Escherichia coli using Gly-Pro-p-nitroanilide as substrate; conditions: for pIC50: read-out: IC50
T1 sequence (O31048 20-723 limits assumed): as above

[3] = target: Dipeptidyl peptidase IV (Porphyromonas gingivalis) (UniProt O31048); assay: Inhibition of Porphyromonas gingivalis N-terminal His-tagged DPP4 expressed in Escherichia coli using Gly-Pro-p-nitroanilide as substrate after 1 hr
[4] = Selectivity index, ratio of IC50 for human DPP4 to IC50 for Porphyromonas gingivalis N-terminal His-tagged DPP4 expressed in Escherichia coli
[5] = target: Dipeptidyl peptidase IV (Porphyromonas gingivalis) (UniProt O31048); assay: Inhibition of Porphyromonas gingivalis N-terminal His-tagged DPP4 expressed in Escherichia coli at 100 uM using Gly-Pro-p-nitroanilide as substrate relative to control
Dipeptidyl peptidase IV [6] = target: T1, Dipeptidyl peptidase IV; assay: Inhibition of Porphyromonas gingivalis N-terminal His-tagged DPP4 expressed in Escherichia coli using Gly-Pro-p-nitroanilide as substrate preincubated for 15 mins

Sequence of Dipeptidyl peptidase 9 (E1BI31 whole entry): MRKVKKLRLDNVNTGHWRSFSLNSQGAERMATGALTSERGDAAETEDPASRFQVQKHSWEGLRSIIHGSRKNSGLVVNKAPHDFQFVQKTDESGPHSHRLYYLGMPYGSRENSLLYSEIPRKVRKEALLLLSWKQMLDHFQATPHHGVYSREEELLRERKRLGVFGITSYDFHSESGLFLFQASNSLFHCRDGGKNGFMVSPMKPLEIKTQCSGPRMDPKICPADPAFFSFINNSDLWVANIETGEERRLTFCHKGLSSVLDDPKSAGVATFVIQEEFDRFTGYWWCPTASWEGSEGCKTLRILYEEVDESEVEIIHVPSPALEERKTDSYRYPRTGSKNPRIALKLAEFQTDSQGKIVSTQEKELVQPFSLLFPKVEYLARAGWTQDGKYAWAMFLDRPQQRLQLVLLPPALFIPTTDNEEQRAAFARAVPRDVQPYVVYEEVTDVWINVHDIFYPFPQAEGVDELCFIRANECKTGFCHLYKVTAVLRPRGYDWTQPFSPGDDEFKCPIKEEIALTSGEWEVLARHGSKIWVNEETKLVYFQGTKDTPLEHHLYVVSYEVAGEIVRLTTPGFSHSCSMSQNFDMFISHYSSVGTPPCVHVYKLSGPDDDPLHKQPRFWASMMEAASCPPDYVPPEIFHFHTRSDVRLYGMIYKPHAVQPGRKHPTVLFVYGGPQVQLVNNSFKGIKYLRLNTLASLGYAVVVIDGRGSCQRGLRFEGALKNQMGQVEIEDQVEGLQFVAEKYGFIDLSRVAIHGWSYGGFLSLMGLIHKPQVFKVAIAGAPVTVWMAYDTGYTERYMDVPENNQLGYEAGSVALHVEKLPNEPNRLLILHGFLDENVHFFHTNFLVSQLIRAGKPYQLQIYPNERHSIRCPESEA

Compound | pIC50 (Dipeptidyl peptidase 9) | inhibition [1] | pIC50 (Dipeptidyl peptidase IV [2]) | inhibition [3] | Ratio IC50 [4] | inhibition [5] | IC50 (Dipeptidyl peptidase IV [2]) | pKi (Dipeptidyl peptidase IV [6])
N[C@@H](CCNCc1ccc(Cl)cc1)C(=O)N1CCCCC1 | 4.12 | > 50% | < 4.00 | – | – | – | – | –
CC#CCn1c(N2CCC[C@@H](N)C2)nc2c1c(=O)n(Cc1nc(C)c3ccccc3n1)c(=O)n2C [LINAGLIPTIN] | < 4.00 | > 50% | – | – | – | < 50% | IC50 10-100 uM | –
CC#CCn1c(N2CCNCC2)nc2c1c(=O)n(Cc1nc(C)c3ccccc3n1)c(=O)n2C | – | > 50% | – | – | < 0.002 | < 50% | IC50 10-100 uM | –
N#C[C@@H]1C[C@H](N=[N+]=[N-])CN1C(=O)[C@@H](N)CCCCN | – | > 50% | 6.48 | – | 6.58 to 6.7 | < 50% | – | –
CC[C@H](C)[C@H](N)C(=O)N1C[C@@H](N=[N+]=[N-])C[C@H]1C#N | – | > 50% | 6.51 | – | 1.1 | < 50% | – | –
N#C[C@@H]1CCCN1C(=O)CNC12CC3CC(CC(O)(C3)C1)C2 [VILDAGLIPTIN] | – | > 50% | 5.89 | Active | – | – | – | 7.77

The remaining molecules from weak to strong by pIC50 (Dipeptidyl peptidase IV [2]), led by results:

pIC50 (Dipeptidyl peptidase 9) | inhibition [1] | pIC50 (Dipeptidyl peptidase IV [2]) | inhibition [3] | Ratio IC50 [4] | inhibition [5] | IC50 (Dipeptidyl peptidase IV [2]) | pKi (Dipeptidyl peptidase IV [6]) | Compound
– | > 50% | 6.52 | Active | 1.76 to 1.8 | < 50% | – | – | N#C[C@@H]1C[C@H](N=[N+]=[N-])CN1C(=O)[C@@H](N)CCCCNC(=O)OCc1ccccc1
– | > 50% | 6.64 | Active | 1.26 to 1.3 | < 50% | – | – | CC[C@@H](C)[C@H](N)C(=O)N1C[C@@H](N=[N+]=[N-])C[C@H]1C#N
– | > 50% | 7.10 | Active | 7.04 to 7.1 | < 50% | – | – | N#C[C@@H]1C[C@H](N=[N+]=[N-])CN1C(=O)[C@@H](N)CCCCNCc1ccc2ccccc2c1
